According to patent US20180113128A1, “DETECTION OF URINARY TRACT INFECTIONS” (ISI Life Sciences, Inc., priority 2016, published 2018):

Assays:
Type in all cases: biochemical
urease [1] = assay: In vitro test demonstrating breakage of ester bonds (urea buffers with or without urease, 96 well); conditions: ten minutes
Text: Two different fluorescein diesters were used in this example. These diesters were fluorescein dibutyrate and fluorescein dioctanoate both of which are commercially available or can be prepared by reacting fluorescein under conventional esterification techniques using as acid anhydrides, acid chlorides, etc. as described herein. The structure of fluorescein diesters is as set forth below:
A. Fluorescein dibutryate (each R is —CH2CH2CH2CH3) B. Fluorescein dioctanoate (each R is —CH2CH2CH2CH2CH2CH3) • The assay was conducted with the following: 1. Assay Buffer A: 0.5 M Urea in phosphate buffered saline, pH 7 (freshly prepared from solid urea). 2. Assay Buffer B: Assay Buffer A plus 0.05% bovine serum albumin 3. Urease: 2000 u/mL in phosphate buffered saline (PBS). This equates to about 40 mg per mL. 4. Fluorescein diesters are dissolved in water with 1% DMSO.
100 microliters of PBS, Assay Buffer A, or Assay Buffer B were added to wells of a 96 well cluster. • 10 microliters of urease were added to the indicated wells. • 5 microliters of each diester were added to each well.
The wells were monitored for ten minutes at which time a photograph was taken.

leukocyte esterases = assay: Fourth in vitro test: pro-label contacted with blood lysate
Text: Certain E. coli species are a common cause of UTIs. […] So, unlike Example 3 where E. coli was used in the absence of blood components, this example evaluates the results of whether a blood lysate would deacylate the ester bonds of pro-labels. Specifically, this example evaluates if these esterases are present in sufficient quantities in the lysate to effect transformation of the pro-labels to labels by deacylation. Accordingly, fluorescein dioctanoate (a non-fluorescent pro-label) was contacted with a blood lysate. A control composition (phosphate buffered saline) containing the same pro-label was prepared. […] The first column contains the control and the second column contains the pro-labeled solution. This figure is taken at time equal to zero. […] As before, the left column is control and the right column is the blood lysate in the presence of fluorescein dioctanoate. […] As to the greenish tinge around the control test tubes, it is postulated that this is the result of reflection from the bright green fluorescence of the adjacent tubes (not shown). Those tubes were removed from FIG. 4 so as to allow a direct comparison between the control and fluorescein dioctanoate.

urease [2] = assay: Second in vitro test: pro-label in normal human urine with or without urease; conditions: room temperature, approximately 10 minutes
Protocol: In this example, fluorescein dioctanoate (a non-fluorescent derivative of fluorescein and a pro-label) was combined with normal urine recently obtained from a volunteer. The urine was divided into two containers. The first container (A) contained fluorescein dioctanoate added as a 1% solution in DMSO. The second container (B) additionally contained urease.
Both samples were maintained at room temperature for approximately 10 minutes and the samples were then evaluated for fluorescence. As is well known, the fluorescence emitted by fluorescein is typically a greenish-yellow color.

[3] = Buffer A: 0.5 M urea in PBS pH 7, no urease
[4] = Buffer B: Buffer A plus 0.05% bovine serum albumin, no urease

CCCC(=O)Oc1ccc2c(c1)Oc1cc(OC(=O)CCC)ccc1C21OC(=O)c2ccccc21 [fluorescein dibutyrate]
fluorescence (photograph) (urease [1]; [3]): no fluorescence
fluorescence (photograph) (urease [1]; Buffer B+urease): fluorescence
fluorescence (photograph) (urease [1]; [4]): minimal fluorescence

CCCCCCCC(=O)Oc1ccc2c(c1)Oc1cc(OC(=O)CCCCCCC)ccc1C21OC(=O)c2ccccc21 [fluorescein dioctanoate]
fluorescence (photograph) (urease [1]; [3]): no fluorescence
fluorescence (photograph) (urease [1]; Buffer B+urease): fluorescence
fluorescence (photograph) (urease [1]; [4]): no to substantially no fluorescence
fluorescence upon application of UV light (leukocyte esterases; blood lysate, incubation for 90 minutes): evidenced fluorescence
fluorescence upon application of UV light (leukocyte esterases; control composition (phosphate buffered saline) containing the same pro-label, 90 minutes): did not
fluorescein fluorescence in urine sample (urease [2]; normal human urine plus urease (container B)): presence of fluorescein fluorescence
fluorescein fluorescence in urine sample (urease [2]; normal human urine, no urease (container A)): lack of fluorescein fluorescence
